Measured values published in patent US7148232B2, “Oxazolo, thiazolo and selenazolo [4,5-c]-quinolin-4-amines and analogs thereof” (3M Innovative Properties Company, priority 1998, dated 2006).

Legend:
[1] = system: tumor necrosis factor (α); assay: Cytokine induction in human cells: tumor necrosis factor (α) secreted by PBMCs (ELISA); type: cell-based; conditions: 18 to 24 hours
Procedure: (§1) An in vitro human blood cell system was used to assess cytokine induction by compounds of the invention.
(§2) Whole blood is collected by venipuncture into EDTA vacutainer tubes from healthy human donors. […] The PBMC suspension is added to 48 well flat bottom sterile tissue culture plates (Costar, Cambridge, Mass. or Becton Dickinson Labware, Lincoln Park, N.J.) containing an equal volume of RPMI complete media containing test compound.
(§3) The compounds are solubilized in dimethyl sulfoxide (DMSO). The DMSO concentration should not exceed a final concentration of 1% for addition to the culture wells.
(§4) The solution of test compound is added at 60 μM to the first well containing RPMI complete and serial 3 fold dilutions are made. The PBMC suspension is then added to the wells in an equal volume, bringing the test compound concentrations to the desired range (0.12 to 30 μM). The final concentration of PBMC suspension is 1.5–2×10^6 cells/mL. The plates are covered with sterile plastic lids, mixed gently and then incubated for 18 to 24 hours at 37° C. in a 5% carbon dioxide atmosphere.
(§5) Following incubation the plates are centrifuged for 5–10 minutes at 1000 rpm (˜200×g) at 4° C. The cell culture supernatant is removed with a sterile polypropylene pipet and transferred to sterile polypropylene tubes. Samples are maintained at −30 to −70° C. until analysis. The samples are analyzed for interferon (α) by either ELISA or bioassay and for tumor necrosis factor (α) by ELISA
Tumor necrosis factor (α) (TNF) concentration is determined using ELISA kits available from Genzyme, Cambridge, Mass.; R&D Systems, Minneapolis, Minn.; or Pharmingen, San Diego, Calif. according to the manufacturer's instructions.

[2] = system: interferon (α); assay: Cytokine induction in human cells: interferon (α) secreted by PBMCs (ELISA or bioassay); type: cell-based; conditions: 18 to 24 hours
Procedure: as §1, §2, §3, §4, §5
Interferon is determined by bioassay using A549 human lung carcinoma cells challenged with encephalomyocarditis. […] Briefly stated the method is as follows: A549 cells are incubated with dilutions of samples or a standard interferon at 37° C. for 24 hours. The incubated cells are then infected with an inoculum of encephalomyocarditis virus. The infected cells are incubated for an additional 24 hours at 37° C. before evaluating for viral cytopathic effect. The viral cytopathic effect is quantified by staining with crystal violet followed by visual scoring of the plates. Results are expressed as alpha reference units/mL based on the value obtained for NIH Human Leukocyte IFN standard.
Interferon (α) concentration is determined by ELISA using a Human Multi-Species kit from PBL Biomedical Laboratories, New Brunswick, N.J. according to the manufacturer's instructions.

[3] = system: interferon (α); assay: Interferon (α) induction in human cells (in vitro human blood cell system, interferon by bioassay); type: cell-based; conditions: human PBM's, 48 hours
Procedure: An in vitro human blood cell system was used to assess interferon induction by compounds of the invention. Activity is based on the measurement of interferon secreted into culture media. Interferon is measured by bioassay.
Whole blood is collected by venipuncture into EDTA vacutainer tubes. Peripheral blood mononuclear cells (PBM's) are separated from whole blood by using either LeucoPREP™ Brand Cell Separation Tubes (available from Becton Dickinson) or Ficoll-Paque® solution (available from Pharmacia LKB Biotechnology Inc, Piscataway, N.J.). […] 200 μL portions of PBM suspension are added to 96 well (flat bottom) sterile tissue culture plates (Becton Dickinson Labware, Lincoln Park, N.J.).
The compounds are solubilized in ethanol, dimethyl sulfoxide or tissue culture water then diluted with tissue culture water, 0.01N sodium hydroxide or 0.01N hydrochloric acid (The choice of solvent will depend on the chemical characteristics of the compound being tested.). Ethanol or DMSO concentration should not exceed a final concentration of 1% for addition to the culture wells. Compounds are initially tested in a concentration range of from about 0.1 μg/mL to about 5 μg/mL. Compounds which show induction at a concentration of 0.5 μg/mL are then tested in a wider concentration range.
The solution of test compound is added in a volume (less than or equal to 50 μL) to the wells containing 200 μL of diluted whole blood or of PBM's in media. Solvent and/or media is added to control wells (wells with no test compound) and as needed to adjust the final volume of each well to 250 μL. The plates are covered with plastic lids, vortexed gently and then incubated for 48 hours at 37° C. with a 5% carbon dioxide atmosphere.
Following incubation, the plates are covered with parafilm and then centrifuged at 1000 rpm for 10 to 15 minutes at 4° C. in a Damon IEC Model CRU-5000 centrifuge. Media (about 200 μL) is removed from 4 to 8 wells and pooled into 2 mL sterile freezing vials. Samples are maintained at −70° C. until analysis.
Interferon is determined by bioassay using A549 human lung carcinoma cells challenged with encephalomyocarditis. The details of the bioassay method have been described by G. L. Brennan and L. H. Kronenberg in “Automated Bioassay of Interferons in Micro-test Plates”, Biotechniques, June/Jul. […] The incubated cells are infected with an inoculum of encephalomyocarditis virus. The infected cells are incubated for an additional period at 37° C. before quantifying for viral cytopathic effect. The viral cytopathic effect is quantified by staining followed by spectrophotometric absorbance measurements. Results are expressed as alpha reference units/mL based on the value obtained for NIH HU IF-L standard.
Compounds of the invention were tested for their ability to induce interferon in human cells using the test method described above.

| Compound | Interferon (α) Induction in Human Cells ([3]; Dose Concentration 0.01 μg/mL) | Interferon (α) Induction in Human Cells ([3]; Dose Concentration 0.05 μg/mL) | Interferon (α) Induction in Human Cells ([3]; Dose Concentration 0.10 μg/mL) | Interferon (α) Induction in Human Cells ([3]; Dose Concentration 0.50 μg/mL) | Interferon (α) Induction in Human Cells ([3]; Dose Concentration 1.0 μg/mL) | Interferon (α) Induction in Human Cells ([3]; Dose Concentration 5.0 μg/mL) | Interferon (α) Induction in Human Cells ([3]; Dose Concentration 10.0 μg/mL) | Interferon (α) Induction in Human Cells ([3]; Dose Concentration 25.0 μg/mL) | Interferon (α) Induction in Human Cells ([3]; Dose Concentration 50.0 μg/mL) | melting point [°C] | further results |
| --- | --- | --- | --- | --- | --- | --- | --- | --- | --- | --- | --- |
| CC(C)c1nc2c(N)nc3ccccc3c2s1 [Example 20, 2-(1-Methyethyl)thiazolo[4,5-c]quinolin-4-amine] | − | − | − | − | − | + | + | + | + | 163 to 165 | Tumor Necrosis Factor Induction ([1]; Dose Concentration 0.12 μM): −; Tumor Necrosis Factor Induction ([1]; Dose Concentration 0.37 μM): −; Tumor Necrosis Factor Induction ([1]; Dose Concentration 1.11 μM): −; Tumor Necrosis Factor Induction ([1]; Dose Concentration 3.33 μM): +; Tumor Necrosis Factor Induction ([1]; Dose Concentration 10 μM): +; Tumor Necrosis Factor Induction ([1]; Dose Concentration 30 μM): +; Interferon (α) Induction ([2]; Dose Concentration 0.12 μM): −; Interferon (α) Induction ([2]; Dose Concentration 0.37 μM): −; Interferon (α) Induction ([2]; Dose Concentration 1.11 μM): +; Interferon (α) Induction ([2]; Dose Concentration 3.33 μM): −; Interferon (α) Induction ([2]; Dose Concentration 10 μM): −; Interferon (α) Induction ([2]; Dose Concentration 30 μM): − |
| CCCc1nc2c(N)nc3cc(F)ccc3c2o1 [Example 48, 7-Fluoro-2-propyloxazolo[4,5-c]quinolin-4-amine] | − | − | − | + | + | + |  |  |  | 184 to 187 |  |
| CCCc1nc2c(N)nc3cc(F)ccc3c2s1 [Example 49, 7-Fluoro-2-propylthiazolo[4,5-c]quinolin-4-amine] | − | − | − | + | + | + |  |  |  | 192.5 to 193.5 |  |
| CCCc1nc2c(N)nc3cc(C(F)(F)F)ccc3c2s1 [Example 50, 2-Propyl-7-(trifluoromethyl)thiazolo[4,5-c]quinolin-4-amine] |  |  | − | + | + | + | + | + | + | 215 to 216 |  |
